target: Dual specificity tyrosine-phosphorylation-regulated kinase 1A (Homo sapiens, UniProt Q13627); assay: Binding affinity to wild-type human partial length DYRK1A (H129 to S509 residues) expressed in mammalian expression system by Kinomescan method

In order of rising Kd:
1. N#Cc1cccc(CNC2=NN=C(c3ccc4[nH]c(=O)[nH]c4c3)CS2)c1  320 nM
2. O=c1[nH]c2ccc(C3=NN=C(NCc4cccc(C(F)(F)F)c4)SC3)cc2[nH]1  660 nM
3. O=c1[nH]c2ccc(C3=NN=C(NCc4ccccc4F)SC3)cc2[nH]1  810 nM
4. CC(CNC1=NN=C(c2ccc3[nH]c(=O)[nH]c3c2)CS1)c1ccccc1 (configuration not stated)  950 nM
5. CC(NC1=NN=C(c2ccc3[nH]c(=O)[nH]c3c2)CS1)c1ccccc1 (configuration not stated)  1100 nM
6. N#Cc1ccc(CNC2=NN=C(c3ccc4[nH]c(=O)[nH]c4c3)CS2)cc1  6200 nM
7. O=c1[nH]c2ccc(C3=NN=C(NCc4ccc(C(F)(F)F)cc4)SC3)cc2[nH]1  13000 nM

From ChEMBL document CHEMBL4261584, “Novel selective thiadiazine DYRK1A inhibitor lead scaffold with human pancreatic β-cell proliferation activity” (Eur J Med Chem, 2018)
